Measured values reported in PubChem BioAssay AID258 (DTP/NCI, 2004).
Several values for one entry are separate records, joined by “and”; a condition that tells them apart may be missing. Equal values may be shown once. Toxic doses and inconclusive results are not listed.

Test system: CD2F1 mice, L1210 leukemia sc, survival T/C
Assay: NCI In Vivo Anticancer Drug Screen. Data for tumor model L1210 Leukemia (subcutaneous) in CD2F1 (CDF1) mice
Conditions: endpoint: median survival time, higher = longer survival
Procedure, shortened: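 Mice with transplanted tumor dosed; survival/tumor size read; T/C vs vehicle controls.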

CC(=O)NNC(=O)c1ccccn1
T/C (dose: 12.5 mg/kg/injection, schedule: Q01DX009 (ip), vehicle: Klucel (hydroxypropylcellulose) (HPC)): 102 % of control
T/C (dose: 25.0 mg/kg/injection, schedule: Q01DX009 (ip), vehicle: Klucel (hydroxypropylcellulose) (HPC)): 102 % of control
T/C (dose: 25.0 mg/kg/injection, schedule: Q01DX009 (ip), vehicle: saline): 102 % of control
T/C (dose: 25.0 mg/kg/injection, schedule: Q01DX009 (sc), vehicle: saline): 98 % of control
T/C (dose: 50.0 mg/kg/injection, schedule: Q01DX009 (ip), vehicle: Klucel (hydroxypropylcellulose) (HPC)): 105 % of control
T/C (dose: 50.0 mg/kg/injection, schedule: Q01DX009 (ip), vehicle: saline): 104 % of control
T/C (dose: 50.0 mg/kg/injection, schedule: Q01DX009 (sc), vehicle: saline): 105 % of control and 109 % of control
T/C (dose: 100.0 mg/kg/injection, schedule: Q01DX009 (ip), vehicle: Klucel (hydroxypropylcellulose) (HPC)): 113 % of control
T/C (dose: 100.0 mg/kg/injection, schedule: Q01DX009 (ip), vehicle: saline): 106 % of control
T/C (dose: 100.0 mg/kg/injection, schedule: Q01DX009 (sc), vehicle: saline): 110 % of control and 113 % of control
T/C (dose: 200.0 mg/kg/injection, schedule: Q01DX009 (ip), vehicle: Klucel (hydroxypropylcellulose) (HPC)): 112 % of control
T/C (dose: 200.0 mg/kg/injection, schedule: Q01DX009 (ip), vehicle: saline): 114 % of control
T/C (dose: 200.0 mg/kg/injection, schedule: Q01DX009 (sc), vehicle: saline): 111 % of control and 119 % of control

C[C@]12C[C@H](O)[C@H]3[C@@H](CCC4=CC(=O)CC[C@@]43C)[C@@H]1CC[C@@H]2C(=O)CO
T/C (dose: 180.0 mg/kg/injection, schedule: Q01DX Z (sc), vehicle: methylcellulose (MC)): 100 % of control

CC[C@]1(O)C[C@H]2CN(CCc3c([nH]c4ccccc34)[C@@](C(=O)OC)(c3cc4c(cc3OC)N(C=O)[C@H]3[C@@](O)(C(=O)OC)[C@H](OC(C)=O)[C@]5(CC)C=CCN6CC[C@]43[C@@H]65)C2)C1
T/C (dose: 0.15 mg/kg/injection, schedule: Q01DX009 (ip), vehicle: saline): 98 % of control
T/C (dose: 0.2 mg/kg/injection, schedule: Q01DX009 (ip), vehicle: saline): 101 % of control
T/C (dose: 0.25 mg/kg/injection, schedule: Q01DX009 (ip), vehicle: saline): 98 % of control
T/C (dose: 0.25 mg/kg/injection, schedule: Q01DX009 (sc), vehicle: saline): 113 % of control
T/C (dose: 0.5 mg/kg/injection, schedule: Q01DX009 (sc), vehicle: saline): 108 % of control
T/C (dose: 0.75 mg/kg/injection, schedule: Q01DX009 (sc), vehicle: saline): 104 % of control and 92 % of control
T/C (dose: 1.0 mg/kg/injection, schedule: Q01DX009 (sc), vehicle: saline): 102 % of control
T/C (dose: 1.25 mg/kg/injection, schedule: Q01DX001 (iv), vehicle: water): 120 % of control
T/C (dose: 1.25 mg/kg/injection, schedule: Q01DX001 (sc), vehicle: water): 120 % of control
T/C (dose: 1.25 mg/kg/injection, schedule: Q01DX009 (sc), vehicle: saline): 111 % of control
T/C (dose: 1.5 mg/kg/injection, schedule: Q01DX009 (sc), vehicle: saline): 107 % of control
T/C (dose: 2.5 mg/kg/injection, schedule: Q01DX001 (iv), vehicle: water): 120 % of control
T/C (dose: 63.0 micrograms/kg/injection, schedule: Q01DX009 (ip), vehicle: saline): 101 % of control
T/C (dose: 63.0 micrograms/kg/injection, schedule: Q01DX009 (sc), vehicle: saline): 103 % of control
T/C (dose: 125.0 micrograms/kg/injection, schedule: Q01DX009 (ip), vehicle: saline): 98 % of control
T/C (dose: 125.0 micrograms/kg/injection, schedule: Q01DX009 (sc), vehicle: saline): 103 % of control
T/C (dose: 250.0 micrograms/kg/injection, schedule: Q01DX009 (ip), vehicle: saline): 96 % of control
T/C (dose: 250.0 micrograms/kg/injection, schedule: Q01DX009 (sc), vehicle: saline): 107 % of control
T/C (dose: 500.0 micrograms/kg/injection, schedule: Q01DX009 (ip), vehicle: saline): 96 % of control
T/C (dose: 500.0 micrograms/kg/injection, schedule: Q01DX009 (sc), vehicle: saline): 114 % of control

COc1cc([C@@H]2c3cc4c(cc3[C@H](OC(C)=O)[C@H]3COC(=O)[C@@H]23)OCO4)cc(OC)c1OC
T/C (dose: 500.0 mg/kg/injection, schedule: Q01DX Z (sc), vehicle: methylcellulose (MC)): 100 % of control

CC1CCC(NC(=O)N(CCCl)N=O)CC1 (centres undefined)
T/C (dose: 0.25 mg/kg/injection, schedule: Q01DX009 (ip), vehicle: saline + alcohol): 96 % of control
T/C (dose: 0.5 mg/kg/injection, schedule: Q01DX009 (ip), vehicle: saline + alcohol): 112 % of control
T/C (dose: 1.0 mg/kg/injection, schedule: Q01DX009 (ip), vehicle: saline + alcohol): 122 % of control
T/C (dose: 4.0 mg/kg/injection, schedule: Q01DX009 (ip), vehicle: saline + alcohol): 153 % of control and 239 % of control
T/C (dose: 4.0 mg/kg/injection, schedule: Q01DX009 (sc), vehicle: saline + alcohol): 107 % of control
T/C (dose: 5.3 mg/kg/injection, schedule: Q01DX009 (sc), vehicle: saline + alcohol): 225 % of control
T/C (dose: 8.0 mg/kg/injection, schedule: Q01DX009 (ip), vehicle: saline + alcohol): 163 % of control and 267 % of control
T/C (dose: 8.0 mg/kg/injection, schedule: Q01DX009 (sc), vehicle: saline + alcohol): 120 % of control and 246 % of control
T/C (dose: 10.7 mg/kg/injection, schedule: Q01DX009 (ip), vehicle: saline + alcohol): 745 % of control
T/C (dose: 12.0 mg/kg/injection, schedule: Q01DX009 (sc), vehicle: saline + alcohol): 250 % of control
T/C (dose: 16.0 mg/kg/injection, schedule: Q01DX009 (ip), vehicle: saline + alcohol): 200 % of control and 230 % of control
T/C (dose: 16.0 mg/kg/injection, schedule: Q01DX009 (sc), vehicle: saline + alcohol): 198 % of control and 209 % of control
T/C (dose: 21.4 mg/kg/injection, schedule: Q01DX009 (sc), vehicle: saline + alcohol): 400 % of control
T/C (dose: 24.0 mg/kg/injection, schedule: Q01DX009 (ip), vehicle: saline + alcohol): 153 % of control
T/C (dose: 24.0 mg/kg/injection, schedule: Q01DX009 (sc), vehicle: saline + alcohol): 123 % of control
T/C (dose: 32.0 mg/kg/injection, schedule: Q01DX009 (sc), vehicle: saline + alcohol): 162 % of control and 203 % of control
T/C (dose: 48.0 mg/kg/injection, schedule: Q01DX009 (ip), vehicle: saline + alcohol): 90 % of control
T/C (dose: 48.0 mg/kg/injection, schedule: Q01DX009 (sc), vehicle: saline + alcohol): 189 % of control
T/C (dose: 64.0 mg/kg/injection, schedule: Q01DX009 (ip), vehicle: saline + alcohol): 150 % of control
T/C (dose: 64.0 mg/kg/injection, schedule: Q01DX009 (sc), vehicle: saline + alcohol): 122 % of control
T/C (dose: 256.0 mg/kg/injection, schedule: Q01DX009 (sc), vehicle: saline + alcohol): 120 % of control

C[C@H](N)C(=O)N[C@@H]1[C@H]2C(=C(O)C[C@@H](O)[C@@H]2O)C(=O)O[C@]1(C)C(Cl)Cl
T/C (dose: 0.37 mg/kg/injection, schedule: Q01DX009 (ip), vehicle: water): 111 % of control
T/C (dose: 0.62 mg/kg/injection, schedule: Q01DX005 (ip), vehicle: water): 112 % of control
T/C (dose: 0.62 mg/kg/injection, schedule: Q01DX005 (iv), vehicle: water): 113 % of control
T/C (dose: 0.75 mg/kg/injection, schedule: Q01DX009 (ip), vehicle: water): 120 % of control
T/C (dose: 0.75 mg/kg/injection, schedule: Q01DX009 (sc), vehicle: water): 116 % of control
T/C (dose: 1.25 mg/kg/injection, schedule: Q01DX005 (ip), vehicle: water): 124 % of control
T/C (dose: 1.5 mg/kg/injection, schedule: Q01DX009 (oral), vehicle: water): 108 % of control
T/C (dose: 3.0 mg/kg/injection, schedule: Q01DX009 (ip), vehicle: water): 160 % of control
T/C (dose: 3.0 mg/kg/injection, schedule: Q01DX009 (oral), vehicle: water): 109 % of control
T/C (dose: 3.0 mg/kg/injection, schedule: Q01DX009 (sc), vehicle: water): 160 % of control
T/C (dose: 6.0 mg/kg/injection, schedule: Q01DX009 (oral), vehicle: water): 112 % of control
T/C (dose: 12.0 mg/kg/injection, schedule: Q01DX009 (oral), vehicle: water): 120 % of control

c1ccc(CNc2ncnc3[nH]ncc23)cc1
T/C (dose: 8.4 mg/kg/injection, schedule: Q01DX Z (sc), vehicle: methylcellulose (MC)): 105 % of control
T/C (dose: 14.0 mg/kg/injection, schedule: Q01DX Z (sc), vehicle: methylcellulose (MC)): 100 % of control
T/C (dose: 23.0 mg/kg/injection, schedule: Q01DX Z (sc), vehicle: methylcellulose (MC)): 100 % of control
T/C (dose: 39.0 mg/kg/injection, schedule: Q01DX Z (sc), vehicle: methylcellulose (MC)): 100 % of control
T/C (dose: 65.0 mg/kg/injection, schedule: Q01DX Z (sc), vehicle: methylcellulose (MC)): 111 % of control
T/C (dose: 108.0 mg/kg/injection, schedule: Q01DX Z (sc), vehicle: methylcellulose (MC)): 122 % of control
